Experimental findings from the supplement of paper PMC11208160 are described below.
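Further: IS621 bridge recombinase in Escherichia coli cells against a fixed T5 target plasmid.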

The data set in a line: recombinant UMI read abundance after kanamycin selection (control-corrected) (log10(CPM+1)); higher = more efficient recombination; extreme values may be limits of the assay; sequences stand for … in AGTGCAGAGAAAATCGGCCAGTTTTCTCTGCCTGCAGTCCGCATGCCGTGGGACCCCTTGGGTTCTAACCTGTTGCCTAGATTTATGCAGCGGACTGCCTTTCTCCCAAAGTGATAAACCGG…AGGTTGGTTTCACT; site = the 11-nt donor. In short, it runs like this: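 In a pooled Escherichia coli screen for the IS621 bridge recombinase, donor and donor-binding-loop pairs were each placed with a 12-nt UMI on a plasmid bearing a promoterless kanamycin gene. This library was co-electroporated with a target plasmid encoding a fixed target and T7-inducible recombinase, and cells were plated either on IPTG (0.07 mM) plus kanamycin or without selection, in two replicates each. Recombinant UMIs were PCR-amplified across the donor–target junction and sequenced, and counts were converted to CPM, averaged over replicates, scaled by control-derived factors and reported as log10(CPM+1).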
As for “CTATGCTCATGGACCGGTTTTCCCGGTAATCCGTATTTGAA (site CTATGCTCTTT)”, the “recombinant UMI read abundance (log10)” value was determined as 2.25. Turning to “CTATTACCATGGACCGGTTTTCCCGGTAATCCGTATTTGAG (site CTATTACCTCT)”, the “recombinant UMI read abundance (log10)” value stood at 0.00551. Next, “CTATTATCATGGACCGGTTTTCCCGGTAATCCGTATTTGAC (site CTAATATCTGT)”: 0; “CTATTATCATGGACCGGTTTTCCCGGTAATCCGTATTTGAC (site CTACTATCTGT)”: 1.96; “CTATTATCATGGACCGGTTTTCCCGGTAATCCGTATTTGAC (site CTAGTATCTGT)”: 1.61. Regarding “CTATTATCATGGACCGGTTTTCCCGGTAATCCGTATTTGAC (site CTATTATCTGT)”, the “recombinant UMI read abundance (log10)” value turned out to be 2.82.

Regarding “CTATTATCATGGACCGGTTTTCCCGGTAATCCGTATTTGAT (site CTAGTATCTGT)”, the “recombinant UMI read abundance (log10)” value was 0.

Consider “CTATTATCATGGACCGGTTTTCCCGGTAATCCGTATTTGAT (site CTATTATCTAT)”, for which the “recombinant UMI read abundance (log10)” value came to 1.18.

“CTATTTCCATGGACCGGTTTTCCCGGTAATCCGTATTTGGA (site CTATTTCCTTC)”: the “recombinant UMI read abundance (log10)” value worked out at 0. For “CTCAATTCATGGACCGGTTTTCCCGGTAATCCGTATTTGCT (site CTCAATTCTAG)”, the “recombinant UMI read abundance (log10)” value amounted to 1.7. For the sequence “CTCACAACATGGACCGGTTTTCCCGGTAATCCGTATTTGTG (site CTCACAACTCA)”, the “recombinant UMI read abundance (log10)” value came to 0. On to “CTCACACCATGGACCGGTTTTCCCGGTAATCCGTATTTGTC (site CTCACACCTGA)”, for which the “recombinant UMI read abundance (log10)” value was 0.

For “CTCACGCCATGGACCGGTTTTCCCGGTAATCCGTATTTGTG (site CTCACGCCTCA)”, the “recombinant UMI read abundance (log10)” value is 0. Next, “CTCACTACATGGACCGGTTTTCCCGGTAATCCGTATTTGAG (site CTCACTACTCT)”: 0.232; “CTCACTACATGGACCGGTTTTCCCGGTAATCCGTATTTGAG (site CTCCCTACTCT)”: 0; “CTCACTACATGGACCGGTTTTCCCGGTAATCCGTATTTGAG (site CTCGCTACTCT)”: 0. Turning to “CTCACTACATGGACCGGTTTTCCCGGTAATCCGTATTTGAG (site CTCTCTACTCT)”, the “recombinant UMI read abundance (log10)” value was 0. Next, “CTCACTCCATGGACCGGTTTTCCCGGTAATCCGTATTTGTA (site CTCACTCCTTA)”: 0.981; “CTCATACCATGGACCGGTTTTCCCGGTAATCCGTATTTGGT (site CTCATACCTAC)”: 0; “CTCATATCATGGACCGGTTTTCCCGGTAATCCGTATTTGAC (site CTAGTATCTGT)”: 0.

Turning to “CTCATATCATGGACCGGTTTTCCCGGTAATCCGTATTTGAC (site CTCATATCTGT)”, the “recombinant UMI read abundance (log10)” value was determined as 1.29. On to “CTCATTTCATGGACCGGTTTTCCCGGTAATCCGTATTTGTG (site CTCATTTCTCA)”, for which the “recombinant UMI read abundance (log10)” value was 0.

On to “CTCCAAGCATGGACCGGTTTTCCCGGTAATCCGTATTTGAG (site ATCCAAGCTCT)”, for which the “recombinant UMI read abundance (log10)” value was 0.0148. Next, “CTCCAAGCATGGACCGGTTTTCCCGGTAATCCGTATTTGAG (site CTCCAAGCTCT)”: 0.456; “CTCCAAGCATGGACCGGTTTTCCCGGTAATCCGTATTTGAG (site GTCCAAGCTCT)”: 0.0157; “CTCCAAGCATGGACCGGTTTTCCCGGTAATCCGTATTTGAG (site TTCCAAGCTCT)”: 0.018.

With “CTCCACACATGGACCGGTTTTCCCGGTAATCCGTATTTGAC (site CTCCACACTGT)”, the “recombinant UMI read abundance (log10)” value was found to be 2.47. Next, “CTCCACACATGGACCGGTTTTCCCGGTAATCCGTATTTGTA (site CACCACACTTA)”: 1.47; “CTCCACACATGGACCGGTTTTCCCGGTAATCCGTATTTGTA (site CCCCACACTTA)”: 0.728. Next, “CTCCACACATGGACCGGTTTTCCCGGTAATCCGTATTTGTA (site CGCCACACTTA)”: 0.289; “CTCCACACATGGACCGGTTTTCCCGGTAATCCGTATTTGTA (site CTCCACACTTA)”: 1.33. Next, “CTCCATACATGGACCGGTTTTCCCGGTAATCCGTATTTGAG (site CTCCATACTCT)”: 1.27; “CTCCATACATGGACCGGTTTTCCCGGTAATCCGTATTTGAG (site CTCCCTACTCT)”: 0.0258; “CTCCATACATGGACCGGTTTTCCCGGTAATCCGTATTTGAG (site CTCCGTACTCT)”: 0.0224. For “CTCCATACATGGACCGGTTTTCCCGGTAATCCGTATTTGAG (site CTCCTTACTCT)”, the “recombinant UMI read abundance (log10)” value amounted to 0.0162. Next, “CTCCCTACATGGACCGGTTTTCCCGGTAATCCGTATTTGAA (site CTCCCTACTAT)”: 0.112. Next, “CTCCCTACATGGACCGGTTTTCCCGGTAATCCGTATTTGAA (site CTCCCTACTCT)”: 0.0285; “CTCCCTACATGGACCGGTTTTCCCGGTAATCCGTATTTGAA (site CTCCCTACTGT)”: 0. Next, “CTCCCTACATGGACCGGTTTTCCCGGTAATCCGTATTTGAA (site CTCCCTACTTT)”: 0.46.

Consider “CTCCCTACATGGACCGGTTTTCCCGGTAATCCGTATTTGAC (site CTCCCTACTAT)”, for which the “recombinant UMI read abundance (log10)” value came to 0.576. Next, “CTCCCTACATGGACCGGTTTTCCCGGTAATCCGTATTTGAC (site CTCCCTACTCT)”: 0.293; “CTCCCTACATGGACCGGTTTTCCCGGTAATCCGTATTTGAC (site CTCCCTACTGT)”: 1.88; “CTCCCTACATGGACCGGTTTTCCCGGTAATCCGTATTTGAC (site CTCCCTACTTT)”: 0.415. Next, “CTCCCTACATGGACCGGTTTTCCCGGTAATCCGTATTTGAG (site ATCCCTACTCT)”: 0.0141. Next, “CTCCCTACATGGACCGGTTTTCCCGGTAATCCGTATTTGAG (site CACCCTACTCT)”: 0.112; “CTCCCTACATGGACCGGTTTTCCCGGTAATCCGTATTTGAG (site CCCCCTACTCT)”: 0.0077; “CTCCCTACATGGACCGGTTTTCCCGGTAATCCGTATTTGAG (site CGCCCTACTCT)”: 0.0122. For “CTCCCTACATGGACCGGTTTTCCCGGTAATCCGTATTTGAG (site CTACCTACTCT)”, the “recombinant UMI read abundance (log10)” value turned out to be 0.0126. With “CTCCCTACATGGACCGGTTTTCCCGGTAATCCGTATTTGAG (site CTCACTACTCT)”, the “recombinant UMI read abundance (log10)” value worked out at 0.0117. Next, “CTCCCTACATGGACCGGTTTTCCCGGTAATCCGTATTTGAG (site CTCCATACTCT)”: 0.00249; “CTCCCTACATGGACCGGTTTTCCCGGTAATCCGTATTTGAG (site CTCCCAACTCT)”: 0.00701; “CTCCCTACATGGACCGGTTTTCCCGGTAATCCGTATTTGAG (site CTCCCCACTCT)”: 0.0165.
